The values that follow come from ChEMBL document CHEMBL1933025, “Discovery and optimization of thieno[2,3-d]pyrimidines as B-Raf inhibitors” (Bioorg Med Chem Lett, 2012).

This series is described as follows: Oral bioavailability in CD IGS rat at 10 mg/kg measured after 26 hrs. The class given is ADME, organism-based. Particulars: in vivo.

The bioavailability is dose-corrected exposure relative to a reference, in per cent.

With `NC(=O)c1sc2ncnc(-c3cccc(NC(=O)Nc4ccc(C(F)(F)F)cc4)c3)c2c1N`, the bioavailability is 0.3%.

In the case of `COc1cncc(-c2nc(NC(C)(C)CO)nc3sc(C(N)=O)c(N)c23)c1`, the bioavailability was 17%.
